From patent US20090181904A1, “METHOD FOR REGULATING NUTRIENT ABSORPTION WITH GINSENOSIDES” (priority 2005, published 2009)

How the values were obtained:
Type in all cases: cell-based, human
Caco-2 cell monolayer = test: Tryptophan absorption assay (transport across Caco-2 monolayer)
Experimental: In measuring transport of arginine across the Caco-2 cell monolayer, both sides of the transwells were washed with arginine incubation buffer consisting of: 137 mM NaCl, 10 mM Hepes, 0.3 mM NaH2PO4, 0.3 mM K2HPO4, 5.4 mM KCl, 2.8 mM CaCl2, 1 mM MgSO4, 10 mM glucose, adjusted to pH 7.4. Then, the cell layer was pre-incubated in the incubation buffer at 37° C. for 1 h. The volumes of incubation buffer were 0.2 mL and 0.9 mL in the apical and basolateral chambers, respectively. The cells were replaced with fresh incubation medium in both chambers prior to the transport experiment. The transport experiment was initiated by replacing the incubation solution on the apical side with solution containing 10 mM of L-arginine in which 0.125 μCi/mL of L-[^3H]-arginine was included. At designated time intervals, 10 μL-solution samples were removed from the basolateral side and radioactivity of each sample was counted using a microplate liquid scintillation counter (TopCount, Packard NXT). During the experiment, when a 10 μL-solution sample was removed from the basolateral side every time, 10 μL buffer was supplemented to keep the volume constant. The uptake of [^3H]-mannitol was used to correct for nonspecific transport of molecules across the monolayer membrane. Results were expressed as the nanomoles of arginine transport across the Caco-2 cell monolayers with respect to time in minutes (nmol/min).
The experimental procedures similar to those in Example 2 were used for measuring the uptake of tryptophan molecules across the Caco-2 membrane, except using a tryptophan incubation buffer consisting of 137 mM choline chloride, 10 mM Hepes, 0.6 mM KH2PO4, 5.4 mM KCl, 2.8 mM CaCl2, 1 mM MgSO4, and 10 mM glucose, and having its pH adjusted to 7.4. Results were expressed as the nanomoles of tryptophan transport across the Caco-2 cell monolayers with respect to time in minutes (nmol/min).

Caco2 cells [1] = test: Folate uptake assay (3H-folate uptake in Caco2 cells); conditions: compound 0.1 μM
Experimental: The Caco2 cells were subjected to folate uptake test in a manner similar to that described in the glucose uptake assay in Example 1 above. In the folate uptake test, the Caco2 cells were pretreated with the culture medium containing 5% FBS and purified ginsenosides at a concentration of […] for 2 days before the cells were cultured in a folate uptake buffer (Hank's balanced salt solution, supplemented with 0.14 g/L CaCl2, 0.1 g/L MgCl2, and 0.1 g/L MgSO4, pH 6.0) for 1 hour. The buffer was then aspirated, and uptake was initiated by adding 0.2 mL of fresh folate uptake buffer containing 2 μCi/mL radioactive folate (3,5,7,9-^3H-folic acid, 25 mCi/mmol, ARC) and cold, unlabeled folate giving a final folate concentration of 5 μM. Folate uptake was terminated by removing the uptake buffer at designated time intervals. The cells were then washed three times with ice-cold PBS and lysed by adding 0.2 mL of 0.2 N NaOH, followed by incubating at 65° C. for 20 min. Intracellular uptake of ^3H-folate was determined by transferring 20 μL of the cell lysate to the filter-bottomed UniFilter plates (Perkin-Elmer) and counting as described previously in Example 1. The amount of folate accumulated in the cells was calculated and normalized to protein concentration, and uptake rate was expressed as picomoles of folate per minutes per milligram of cell protein (pmol/min/mg). Protein concentration was determined by a standard Bicinchoninic acid (BCA) protein assay as described above.

Caco2 cells [2] = test: Cell viability assay (CCK-8); conditions: 10 μM and 50 μM, culture medium containing 1% FBS, 5 days
Experimental: In order to investigate whether the purified ginsenosides were toxic to the Caco2 cells, a cell viability assay was carried out using culture medium supplemented with 1% and 10% FBS, respectively. The cells were seeded at a concentration of 5000 cells/well in a 96-well plate. To eliminate the boundary effect of the cell growth, the cells were only seeded in 60 wells of the middle area of the plate, whereas 36 wells at the surrounding area of the plate were filled only with 100 μL of PBS. Once the cells were attached to the plate, the cells were incubated in medium containing the purified ginsenosides at various concentrations (0, 0.1, 1, 10 and 50 μM). […]
The cell viability was determined by a Cell Counting Kit-8 (CCK-8, Dojindo Laboratories, Kumamoto, Japan) assay that was based on redox reaction of NADH in the living cells with cell proliferation reagent WST-8. […] Therefore, a greater light absorbance detected by ELISA reader at wavelength of 450 nm indicated presence of a larger number of the living cells.
The CCK-8 assay was carried out by adding 10 μL of the CCK-8 reagent in each well of a 96-format plate. The plate was then covered with aluminum foil and further incubated for two hours before measuring for absorbance at wavelengths of 450 nm using an ELISA reader.

CC(C)=CCC[C@](C)(O[C@@H]1O[C@H](CO)[C@@H](O)[C@H](O)[C@H]1O)[C@H]1CC[C@]2(C)[C@@H]1[C@H](O)C[C@@H]1[C@@]3(C)CC[C@H](O)C(C)(C)[C@@H]3[C@@H](O[C@@H]3O[C@H](CO)[C@@H](O)[C@H](O)[C@H]3O)C[C@]12C [Rg1, ginsenoside Rg1]
* (arrow: regulatory effect on tryptophan transport) (Caco-2 cell monolayer; compound 0.001 μM): ↑ | Percentage (tryptophan transport, control = 100) (Caco-2 cell monolayer; compound 0.001 μM): 130.17% | Transport rate (tryptophan) (Caco-2 cell monolayer; compound 0.001 μM): 16.180 ± 2.8700 nmol/min | tryptophan transport rate (in words) (Caco-2 cell monolayer; compound 0.001 μM to 0.1 μM): increased | * (arrow: regulatory effect on tryptophan transport) (Caco-2 cell monolayer; compound 0.01 μM): ↑ | Percentage (tryptophan transport, control = 100) (Caco-2 cell monolayer; compound 0.01 μM): 133.47% | Transport rate (tryptophan) (Caco-2 cell monolayer; compound 0.01 μM): 16.590 ± 1.4190 nmol/min | * (arrow: regulatory effect on tryptophan transport) (Caco-2 cell monolayer; compound 0.1 μM): ↑ | Percentage (tryptophan transport, control = 100) (Caco-2 cell monolayer; compound 0.1 μM): 142.48% | Transport rate (tryptophan) (Caco-2 cell monolayer; compound 0.1 μM): 17.710 ± 0.5948 nmol/min | Percentage (folate uptake, control = 100) (Caco2 cells [1]): 62.64% | folate uptake versus non-treated control (in words, FIG. 5) (Caco2 cells [1]): decreased | Transport rate (folate uptake) (Caco2 cells [1]; 2 days pretreatment, 5 μM folate, pH 6.0): 1.0780 ± 0.1534 pmol/mg/min | cytotoxicity to Caco2 cells (cell viability) (Caco2 cells [2]): exhibited cytotoxicity
